Experiments:
[1] = target: T1, human nicotinic acetylcholine receptor subtype a4b2 (Homo sapiens, UniProt P17787+P43681); test: FLIPR nAChR a4b2 positive allosteric modulator activity (modulation of nicotine-induced response); assay type: cell-based; settings: shift of nicotine pEC50 in the presence of 10 μM test compound compared to nicotine alone, HEK-293 cells stably expressing hα4β2
T1 construct: expressed in transfected cells
Experimental: Characterization of hα4β2 Positive Allosteric Modulators Using FLIPR
The modulator activity is determined as a fluorescence-based assay using a Fluorometric Imaging Plate Reader (FLIPR) as described below in more detail.
Full concentration-response curves of nicotine +/− test compound are generated and delta pEC50 values are calculated based on EC50 values for nicotine +/− test compound. EC50 values (Effective Concentration 50%) represent the concentration of the nicotine, at which the nicotine-induced response is 50% of the maximal nicotine-induced response.

T1 sequence (P43681 29-627 limits assumed): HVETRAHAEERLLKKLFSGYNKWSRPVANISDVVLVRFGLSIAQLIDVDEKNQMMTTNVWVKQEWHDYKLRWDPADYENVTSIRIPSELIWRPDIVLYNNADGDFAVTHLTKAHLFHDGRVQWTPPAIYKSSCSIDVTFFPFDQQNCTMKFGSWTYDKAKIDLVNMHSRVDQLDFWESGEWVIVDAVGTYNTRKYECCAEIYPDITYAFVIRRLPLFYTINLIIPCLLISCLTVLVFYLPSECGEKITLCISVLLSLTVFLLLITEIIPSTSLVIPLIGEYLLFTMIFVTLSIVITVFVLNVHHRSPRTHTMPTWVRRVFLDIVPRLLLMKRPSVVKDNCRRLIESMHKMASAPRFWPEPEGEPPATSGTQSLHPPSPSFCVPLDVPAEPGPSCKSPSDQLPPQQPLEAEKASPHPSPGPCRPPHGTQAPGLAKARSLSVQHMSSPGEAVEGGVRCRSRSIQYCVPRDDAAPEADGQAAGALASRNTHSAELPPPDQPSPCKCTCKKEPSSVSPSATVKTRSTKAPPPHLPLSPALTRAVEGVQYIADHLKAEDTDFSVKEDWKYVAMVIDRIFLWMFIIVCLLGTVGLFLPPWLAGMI
T1 sequence (P17787 26-502): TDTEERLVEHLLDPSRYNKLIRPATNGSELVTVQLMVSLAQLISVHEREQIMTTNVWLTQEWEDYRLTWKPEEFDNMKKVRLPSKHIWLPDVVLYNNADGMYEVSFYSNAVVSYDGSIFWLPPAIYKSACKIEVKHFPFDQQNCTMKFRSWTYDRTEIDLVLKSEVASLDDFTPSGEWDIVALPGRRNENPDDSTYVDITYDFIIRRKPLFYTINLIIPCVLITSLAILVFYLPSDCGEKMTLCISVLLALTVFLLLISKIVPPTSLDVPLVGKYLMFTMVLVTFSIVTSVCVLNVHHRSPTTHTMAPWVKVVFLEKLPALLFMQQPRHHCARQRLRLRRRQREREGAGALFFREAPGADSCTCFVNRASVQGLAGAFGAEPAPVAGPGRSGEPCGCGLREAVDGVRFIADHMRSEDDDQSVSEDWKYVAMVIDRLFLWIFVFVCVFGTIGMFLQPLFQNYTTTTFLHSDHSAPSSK

| Delta pEC50 [1] | melting point [°C] | SMILES |
| --- | --- | --- |
| 1.9 | 185 to 205 | N#Cc1cccc(-c2nnn(-c3cccnc3)n2)c1 [Compound 2.2, 3-(2-Pyridin-3-yl-2h-tetrazol-5-yl)-benzonitrile] |
|  | 175 to 191 | N#Cc1cccc(-c2nnn(-c3cncc(Br)c3)n2)c1 [Compound 2.5, 3-[2-(5-Bromo-3-pyridyl)tetrazol-5-yl]benzonitrile] |
| 1.3 |  | N#Cc1cccc(-n2nnc(-c3ccc(F)nc3)n2)c1 [Compound 2.10, 3-[5-(6-Fluoro-3-pyridyl)tetrazol-2-yl]benzonitrile] |
| 1.1 |  | N#Cc1ccc(-n2nnc(-c3cccnc3)n2)cc1C#N [Compound 2.14, 4-[5-(3-Pyridyl)tetrazol-2-yl]phthalonitrile] |
| 1.9 |  | N#Cc1cccc(-n2nnc(-c3cccnc3)n2)c1 [Compound 2.1, 3-(5-Pyridin-3-yl-tetrazol-2-yl)-benzonitrile] |
| 1.8 |  | N#Cc1cccc(-c2nnn(-c3cncc(F)c3)n2)c1 [Compound 2.6, 3-[2-(5-Fluoro-3-pyridyl)tetrazol-5-yl]benzonitrile] |
| 1.6 |  | N#Cc1cccc(-n2nnc(-c3cncc(F)c3)n2)c1 [Compound 2.9, 3-[5-(5-Fluoro-3-pyridyl)tetrazol-2-yl]benzonitrile] |

| SMILES | Delta pEC50 [1] | melting point [°C] |
| --- | --- | --- |
| Cl.N#Cc1cccc(-c2nnn(-c3ccc(F)nc3)n2)c1 [Compound 2.3, 3-[2-(6-Fluoro-3-pyridyl)tetrazol-5-yl]benzonitrile hydrochloride] | 1.7 | 168 to 170 |

From patent publication US20120095056A1, “2,5-DISUBSTITUTED TETRAZOLE DERIVATIVES AND THEIR USE AS NICOTINIC ACETYLCHOLINE RECEPTOR MODULATORS” (NEUROSEARCH A/S, priority 2009, published 2012)
